Data reported in patent US12528761B2, “Thyromimetics” (Autobahn Therapeutics, Inc., priority 2020, dated 2026).

Molecular target: T1, recombinant human FAAH (rhFAAH) (Homo sapiens, UniProt O00519)
T1 construct: purchased Cayman Chemical (Ann Arbor, MI, USA)
T1 sequence (O00519 1-579): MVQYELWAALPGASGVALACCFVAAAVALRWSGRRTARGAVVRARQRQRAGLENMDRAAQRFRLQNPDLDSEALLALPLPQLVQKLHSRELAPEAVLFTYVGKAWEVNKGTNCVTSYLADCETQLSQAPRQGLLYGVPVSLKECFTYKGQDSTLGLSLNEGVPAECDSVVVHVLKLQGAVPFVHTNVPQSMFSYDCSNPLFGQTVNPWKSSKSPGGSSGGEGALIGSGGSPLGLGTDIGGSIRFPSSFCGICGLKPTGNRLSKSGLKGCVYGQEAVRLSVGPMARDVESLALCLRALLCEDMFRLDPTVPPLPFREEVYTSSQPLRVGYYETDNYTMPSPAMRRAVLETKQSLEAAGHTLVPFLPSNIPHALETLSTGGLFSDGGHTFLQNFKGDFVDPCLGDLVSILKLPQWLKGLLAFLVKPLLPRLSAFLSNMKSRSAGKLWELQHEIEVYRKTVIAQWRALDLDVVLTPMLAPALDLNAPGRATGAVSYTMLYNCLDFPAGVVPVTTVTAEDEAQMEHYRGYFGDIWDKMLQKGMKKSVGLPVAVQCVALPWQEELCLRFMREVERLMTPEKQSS
Experiment: FAAH substrate evaluation (formation of acid metabolite, LC-MS/MS)
Format: biochemical
Set-up: key: A: ke is equal to or less than 1.0; B: ke is greater than 1.0 and less than or equal to 2.5; C: ke is greater than 2.5; NC: no conversion
Conditions: 0.5 ng/μL rhFAAH, 1 μM test compound, pH 8.0, room temperature, 0-60 minutes
Procedure: Purified recombinant human FAAH (rhFAAH) was purchased from Cayman Chemical (Ann Arbor, MI, USA). The total volume for each incubation was 400 μL containing a final 0.5 ng/μL rhFAAH, 1 μM test compound, 1.25% ethanol or 1 μM PF-3845 (FAAH inhibitor), and 0.1% bovine serum albumin in Tris-EDTA buffer at pH 8.0). The positive control was LL-341001. The incubation was conducted at the room temperature. At 0, 5, 15, 30 and 60 minutes, an aliquot of 30 μL reaction mixtures was removed and mixed with 300 μL acetonitrile containing 5 ng/mL terfenadine and 10 ng/mL tolbutamide as internal standards to quench the reaction. The resulting mixture was centrifuged at 4000 rpm, 4° C. for 15 minutes, and 100 μL supernatant was ready for LC-MS/MS analysis to measure the formation of acid metabolite.
Acquity Ultra Performance LC system from Waters was used for sample analysis. The chromatography was performed on a reverse phase Kinetex 2.6 μm C18 column, 2.1×30 mm, 100 Å. The mobile phase A comprised of 0.1% formic acid in water and mobile phase B comprised of 0.1% formic acid in acetonitrile with a 2-min run time at the flow rate of 0.8 mL/min for the acid metabolite from positive control or a 1.5 min run time at the flow rate of 0.9 mL/min for the acid metabolite of test compounds. The mass spectrometer (API-5500 and API Q Trap 4000 Applied Biosystems/MDS SCIEX Instruments, Framingham, MA, USA) was operated under ESI positive or negative ion MRM mode.
The formation of acid metabolite was monitored and quantified using one calibration point of 1 μM. The observed rate constant (ke) for the acid metabolite formation was calculated by plotting the metabolite concentration versus time of incubation with the slope being ke and is shown in Table 4.

| ke, observed rate constant for the acid metabolite formation | SMILES |
| --- | --- |
| C (ke is greater than 2.5) | Cc1cc(SCC(N)=O)cc(Cl)c1Cc1ccc(O)c(C(C)C)c1F [Compound 234, 2-((3-chloro-4-(2-fluoro-4-hydroxy-3-isopropylbenzyl)-5-methylphenyl)thio)acetamide] |
| NC | CC(C)CNC(=O)CNc1cc(Cl)c(Cc2ccc(O)c(C(C)C)c2F)c(Cl)c1F [Compound 164, 2-((3,5-dichloro-2-fluoro-4-(2-fluoro-4-hydroxy-3-isopropylbenzyl)phenyl)amino)-N-isobutylacetamide] |
| NC | CC(C)CNC(=O)CSc1cc(Cl)c(Cc2ccc(O)c(C(C)C)c2)c(Cl)c1 [Compound 185, 2-((3,5-dichloro-4-(4-hydroxy-3-isopropylbenzyl)phenyl)thio)-N-isobutylacetamide] |
| A (ke is equal to or less than 1.0) | CNC(=O)CNCc1cc(Cl)c(Cc2ccc(O)c(C(C)C)c2)c(Cl)c1 [Compound 111, 2-((3,5-dichloro-4-(4-hydroxy-3-isopropylbenzyl)benzyl)amino)-N-methylacetamide] |
| A (ke is equal to or less than 1.0) | Cc1cc(CSCC(=O)N2CCC2)cc(Cl)c1Cc1ccc(O)c(C(C)C)c1 [Compound 228, 1-(azetidin-1-yl)-2-((3-chloro-4-(4-hydroxy-3-isopropylbenzyl)-5-methylbenzyl)thio)ethan-1-one] |
| A (ke is equal to or less than 1.0) | CNC(=O)/C(C)=C/c1cc(Cl)c(Cc2ccc(O)c(C(C)C)c2)c(C)c1F [Compound 237, (E)-3-(5-chloro-2-fluoro-4-(4-hydroxy-3-isopropylbenzyl)-3-methylphenyl)-N,2-dimethylacrylamide] |
| A (ke is equal to or less than 1.0) | CNC(=O)CCc1cc(Cl)c(Cc2ccc(O)c(C(C)C)c2)c(Cl)c1 [Compound 12, 3-(3,5-dichloro-4-(4-hydroxy-3-isopropylbenzyl)phenyl)-N-methylpropanamide] |
| A (ke is equal to or less than 1.0) | CC(C)c1cc(Cc2c(Cl)cc(SCC(=O)NCc3ccccc3)cc2Cl)ccc1O [Compound 184, N-benzyl-2-((3,5-dichloro-4-(4-hydroxy-3-isopropylbenzyl)phenyl)thio)acetamide] |
| NC | CNC(=O)CN(C)c1cc(Cl)c(Cc2ccc(O)c(C(C)C)c2)c(Cl)c1 [Compound 149, 2-((3,5-dichloro-4-(4-hydroxy-3-isopropylbenzyl)phenyl)(methyl)amino)-N-methylacetamide] |
| A (ke is equal to or less than 1.0) | CCNC(=O)CSc1cc(Cl)c(Cc2ccc(O)c(C(C)C)c2F)c(Cl)c1 [Compound 187, 2-((3,5-dichloro-4-(2-fluoro-4-hydroxy-3-isopropylbenzyl)phenyl)thio)-N-ethylacetamide] |

More lines, now with the values behind:

| SMILES | ke, observed rate constant for the acid metabolite formation |
| --- | --- |
| CNC(=O)CSCc1cc(C)c(Cc2ccc(O)c(C(C)C)c2)c(Cl)c1 [Compound 241, 2-((3-chloro-4-(4-hydroxy-3-isopropylbenzyl)-5-methylbenzyl)thio)-N-methylacetamide] | B (ke is greater than 1.0 and less than or equal to 2.5) |
| CNC(=O)CNc1cc(C)c(Cc2ccc(O)c(C(C)C)c2F)c(Cl)c1 [Compound 235, 2-((3-chloro-4-(2-fluoro-4-hydroxy-3-isopropylbenzyl)-5-methylphenyl)amino)-N-methylacetamide] | A (ke is equal to or less than 1.0) |
| CNC(=O)CSCc1cc(Cl)c(Cc2ccc(O)c(C(C)C)c2)c(C)c1F [Compound 219, 2-((5-chloro-2-fluoro-4-(4-hydroxy-3-isopropylbenzyl)-3-methylbenzyl)thio)-N-methylacetamide] | A (ke is equal to or less than 1.0) |
| CC(C)c1cc(Cc2c(Cl)cc(SCC(=O)Nc3cnccn3)cc2Cl)ccc1O [Compound 171, 2-((3,5-dichloro-4-(4-hydroxy-3-isopropylbenzyl)phenyl)thio)-N-(pyrazin-2-yl)acetamide] | B (ke is greater than 1.0 and less than or equal to 2.5) |
| CNC(=O)CCc1cc(Cl)c(Cc2ccc(O)c(C(C)C)c2F)c(Cl)c1F [Compound 72, 3-(3,5-dichloro-2-fluoro-4-(2-fluoro-4-hydroxy-3-isopropylbenzyl)phenyl)-N-methylpropanamide] | A (ke is equal to or less than 1.0) |
| CC(C)c1cc(Cc2c(Cl)cc(SCC(=O)Nc3cccnc3)cc2Cl)ccc1O [Compound 170, 2-((3,5-dichloro-4-(4-hydroxy-3-isopropylbenzyl)phenyl)thio)-N-(pyridin-3-yl)acetamide] | C (ke is greater than 2.5) |
| COc1ccc(NC(=O)CSc2cc(Cl)c(Cc3ccc(O)c(C(C)C)c3)c(Cl)c2)nn1 [Compound 169, 2-((3,5-dichloro-4-(4-hydroxy-3-isopropylbenzyl)phenyl)thio)-N-(6-methoxypyridazin-3-yl)acetamide] | A (ke is equal to or less than 1.0) |
| CNC(=O)/C(C)=C/c1cc(Cl)c(Cc2ccc(O)c(C(C)C)c2F)c(Cl)c1 [Compound 146, (E)-3-(3,5-dichloro-4-(2-fluoro-4-hydroxy-3-isopropylbenzyl)phenyl)-N,2-dimethylacrylamide] | A (ke is equal to or less than 1.0) |
| CNC(=O)CNc1cc(C)c(Cc2ccc(O)c(C(C)C)c2)c(Cl)c1 [Compound 240, 2-((3-chloro-4-(4-hydroxy-3-isopropylbenzyl)-5-methylphenyl)amino)-N-methylacetamide] | NC |
| Cc1noc(NC(=O)CSc2cc(Cl)c(Cc3ccc(O)c(C(C)C)c3)c(Cl)c2)c1C [Compound 168, 2-((3,5-dichloro-4-(4-hydroxy-3-isopropylbenzyl)phenyl)thio)-N-(3,4-dimethylisoxazol-5-yl)acetamide] | B (ke is greater than 1.0 and less than or equal to 2.5) |
| CNC(=O)CNc1cc(C)c(Cc2ccc(O)c(C(C)C)c2)c(Cl)c1F [Compound 135, 2-((3-chloro-2-fluoro-4-(4-hydroxy-3-isopropylbenzyl)-5-methylphenyl)amino)-N-methylacetamide] | A (ke is equal to or less than 1.0) |
| Cc1cc(CSCC(=O)NC2CC2)cc(Cl)c1Cc1ccc(O)c(C(C)C)c1 [Compound 229, 2-((3-chloro-4-(4-hydroxy-3-isopropylbenzyl)-5-methylbenzyl)thio)-N-cyclopropylacetamide] | C (ke is greater than 2.5) |
| CNC(=O)CNc1cc(Cl)c(Cc2ccc(O)c(C(C)C)c2)c(C)c1F [Compound 216, 2-((5-chloro-2-fluoro-4-(4-hydroxy-3-isopropylbenzyl)-3-methylphenyl)amino)-N-methylacetamide] | A (ke is equal to or less than 1.0) |
| CC(C)c1c(O)ccc(Cc2c(Cl)cc(NCC(=O)Nc3ccncc3)c(F)c2Cl)c1F [Compound 161, 2-((3,5-dichloro-2-fluoro-4-(2-fluoro-4-hydroxy-3-isopropylbenzyl)phenyl)amino)-N-(pyridin-4-yl)acetamide] | B (ke is greater than 1.0 and less than or equal to 2.5) |
| CC(C)c1cc(Cc2c(Cl)cc(SCC(=O)Nc3cccnn3)cc2Cl)ccc1O [Compound 174, 2-((3,5-dichloro-4-(4-hydroxy-3-isopropylbenzyl)phenyl)thio)-N-(pyridazin-3-yl)acetamide] | C (ke is greater than 2.5) |
| CNC(=O)CNc1cc(Cl)c(Cc2ccc(O)c(C(C)C)c2)c(Cl)c1 [Compound 175, 2-((3,5-dichloro-4-(4-hydroxy-3-isopropylbenzyl)phenyl)amino)-N-methylacetamide] | A (ke is equal to or less than 1.0) |
